# Assays:
# Test in all cases: tryptophan fluorescence quenching titration with purified protein
# Format in all cases: binding
# [1] = molecular target: T1, tadA (tRNA-specific adenosine deaminase) (Escherichia coli, UniProt P68398)
# T1 construct: his-tagged tadA
# [2] = molecular target: T2, tadA (tRNA-specific adenosine deaminase) (Escherichia coli, UniProt P68398, F149G)
# T2 construct: his-tagged tadA
# [3] = molecular target: T3, tadA (tRNA-specific adenosine deaminase) (Escherichia coli, UniProt P68398, A143V)
# T3 construct: his-tagged tadA
# T3 sequence (P68398 whole entry A143V): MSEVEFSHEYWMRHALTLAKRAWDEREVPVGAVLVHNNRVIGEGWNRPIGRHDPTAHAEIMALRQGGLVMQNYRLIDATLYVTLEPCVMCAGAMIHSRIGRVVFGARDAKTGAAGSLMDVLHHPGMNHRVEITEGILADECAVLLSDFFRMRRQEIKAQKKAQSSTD
# T2 sequence (P68398 whole entry F149G): as the sequence (P68398 whole entry A143V) above, with V143A, F149G counted along it
# T1 sequence (P68398 whole entry): as the sequence (P68398 whole entry A143V) above, with V143A counted along it
smiles,measurement,setting,value
CC(C)=CCC[C@@H](C)c1ccc(C)c(O)c1 [xanthorrhizol],Kd,[1],19 µM
same,Kd,[2],32.8 µM
same,Kd,[3],110 µM

# — article PMC6331797, “Escherichia coli ASKA Clone Library Harboring tRNA-Specific Adenosine Deaminase (tadA) Reveals Resistance towards Xanthorrhizol” (Molecules, 2015)
